Experimental data published in patent publication US8461328B2, “Tricyclic heterocyclic compounds, compositions and methods of use thereof” (Genentech, Inc., priority 2010, dated 2013).
Read-outs that look alike come from different tables or passages of the source.

Columns and labels:
Type in all cases: biochemical
TYK2 = target: T1, TYK2 (Homo sapiens, UniProt P29597); test: TYK2 inhibition (Table 4)
T1 construct: made in house; host or cells: SF9 insect cells (baculovirus)
T1 sequence (P29597 873-1187): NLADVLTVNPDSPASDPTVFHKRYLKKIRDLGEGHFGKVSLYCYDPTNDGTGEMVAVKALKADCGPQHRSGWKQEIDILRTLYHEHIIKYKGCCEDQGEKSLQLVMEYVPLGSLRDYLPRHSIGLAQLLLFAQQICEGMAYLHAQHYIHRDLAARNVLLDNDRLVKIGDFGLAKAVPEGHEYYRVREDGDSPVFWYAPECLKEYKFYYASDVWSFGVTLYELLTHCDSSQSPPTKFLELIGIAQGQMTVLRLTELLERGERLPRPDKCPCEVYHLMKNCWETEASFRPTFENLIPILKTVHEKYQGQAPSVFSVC

JAK2 = target: T2, JAK2 (Homo sapiens, UniProt O60674); test: JAK2 inhibition (Table 4); conditions: read-out: JAK2 Ki
T2 construct: made in house; host or cells: SF9 insect cells (baculovirus)
T2 sequence (O60674 812-1132): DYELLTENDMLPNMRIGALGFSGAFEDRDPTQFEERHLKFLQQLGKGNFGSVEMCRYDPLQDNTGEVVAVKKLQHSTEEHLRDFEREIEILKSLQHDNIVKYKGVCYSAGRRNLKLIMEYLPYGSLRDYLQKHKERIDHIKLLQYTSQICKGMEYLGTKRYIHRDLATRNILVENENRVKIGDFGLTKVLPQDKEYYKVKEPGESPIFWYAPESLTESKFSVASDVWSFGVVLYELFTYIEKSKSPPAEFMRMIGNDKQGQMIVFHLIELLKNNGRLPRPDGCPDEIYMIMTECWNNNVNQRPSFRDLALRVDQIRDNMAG

JAK3 = target: T3, JAK3 (Homo sapiens, UniProt P52333); test: JAK3 inhibition (Table 4); conditions: read-out: JAK3 Ki
T3 construct: made in house; host or cells: SF9 insect cells (baculovirus)
T3 sequence (P52333 783-1124): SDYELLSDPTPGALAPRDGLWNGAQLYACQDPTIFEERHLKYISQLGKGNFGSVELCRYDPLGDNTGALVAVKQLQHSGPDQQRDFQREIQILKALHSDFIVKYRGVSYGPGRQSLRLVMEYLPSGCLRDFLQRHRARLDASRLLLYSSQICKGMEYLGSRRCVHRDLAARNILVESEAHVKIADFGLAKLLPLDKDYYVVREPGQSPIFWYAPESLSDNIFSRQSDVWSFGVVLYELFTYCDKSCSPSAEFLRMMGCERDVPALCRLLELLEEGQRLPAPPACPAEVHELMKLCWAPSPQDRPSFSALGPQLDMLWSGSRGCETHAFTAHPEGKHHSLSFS

JAK1 = target: T4, JAK1 (Homo sapiens, UniProt P23458); test: JAK1 inhibition (Table 4)
T4 construct: made in house; host or cells: SF9 insect cells (baculovirus)
T4 sequence (P23458 852-1154): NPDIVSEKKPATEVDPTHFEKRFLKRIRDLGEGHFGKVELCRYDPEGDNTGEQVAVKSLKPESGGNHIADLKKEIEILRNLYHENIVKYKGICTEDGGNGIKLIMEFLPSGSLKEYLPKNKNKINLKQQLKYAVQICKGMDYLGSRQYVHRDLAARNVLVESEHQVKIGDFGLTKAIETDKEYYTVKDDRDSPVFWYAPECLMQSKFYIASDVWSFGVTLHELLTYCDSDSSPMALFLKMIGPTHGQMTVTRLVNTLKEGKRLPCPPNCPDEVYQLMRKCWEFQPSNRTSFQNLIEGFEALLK

Row | Ki (TYK2) [nM] | Ki (JAK2) [nM] | Ki (JAK3) [nM] | Ki (JAK1; read-out: JAK1 Ki) [nM] | Compound | Ki (JAK1; JAK1 Ki) [nM]
1 | 1700 | 1310 | 245 | 84.4 | O=C(Cc1nc2cnc3[nH]ccc3c2n1C1CCNCC1)N1CC(F)(F)C1 [Example 269, 1-(3,3-Difluoro-azetidin-1-yl)-2-(1-piperidin-4-yl-1,6-dihydro-1,3,5,6-tetraaza-as-indacen-2-yl)-ethanone] | 
2 | 352 | 121 | 15.1 | 36.1 | N#CCCN1CCC(n2c(CC(=O)N3CCCC3)nc3cnc4[nH]ccc4c32)CC1 [Example 270, 3-{4-[2-(2-Oxo-2-pyrrolidin-1-yl-ethyl)-6H-1,3,5,6-tetraaza-as-indacen-1-yl]-piperidin-1-yl}-propionitrile] | 
3 | 4.71 | 1.35 | 3.14 | 0.5 | Cc1nc2cnc3[nH]ccc3c2n1[C@@H]1CCCN(C(=O)CC#N)C1 [Example 272] | 
4 | 48.4 | 18.9 | 19.2 | 5.29 | Cc1nc2cnc3[nH]ccc3c2n1[C@H]1CC[C@H](N)CC1 [Example 273, 4-(2-Methyl-6H-1,3,5,6-tetraaza-as-indacen-1-yl)-cyclohexylamine] | 
5 | 259 | 88.8 | 39.3 | 34.3 | N#CCCN1CCC(n2c(CC(=O)N3CC(F)(F)C3)nc3cnc4[nH]ccc4c32)CC1 [Example 274, 3-(4-{2-[2-(3,3-Difluoro-azetidin-1-yl)-2-oxo-ethyl]-6H-1,3,5,6-tetraaza-as-indacen-1-yl]-piperidin-1-yl}-propionitrile] | 
6 | 460 | 32.3 | 378 | 12.1 | CC(C)(C)OC(=O)N[C@H]1CC[C@H](n2nnc3cnc4[nH]ccc4c32)CC1 [Example 276, [4-(6H-1,2,3,5,6-Pentaaza-as-indacen-1-yl)-cyclohexyl]-carbamic acid tert-butyl ester] | 
7 | 54.4 | 5.19 | 6.41 | 1.52 | OCc1nc2cnc3[nH]ccc3c2n1C1CCN(Cc2cccnc2)CC1 [Example 278, [1-(1-Pyridin-3-ylmethyl-piperidin-4-yl)-1,6-dihydro-1,3,5,6-tetraaza-as-indacen-2-yl]-methanol] | 
8 | 171 | 25.1 | 16.3 | 7.49 | CC(C)c1nc2cnc3[nH]ccc3c2n1C1CCN(CCC#N)CC1 [Example 281, 3-[4-(2-Isopropyl-6H-1,3,5,6-tetraaza-as-indacen-1-yl)-piperidin-1-yl]-propionitrile] | 
9 | 260 | 12.1 | 48.1 | 7.53 | c1cncc(CN2CCC(n3nnc4cnc5[nH]ccc5c43)CC2)c1 [Example 282, 1-(1-Pyridin-3-ylmethyl-piperidin4-yl)-1,6-dihydro-1,2,3,5,6-pentaaza-as-indacene] | 
10 | 50.2 | 1.93 | 2.63 | 0.84 | Cc1nc2cnc3[nH]ccc3c2n1C1CCN(Cc2cccnc2)CC1 [Example 283, 2-Methyl-1-(1-pyridin-3-ylmethyl-piperidin-4-yl)-1,6-dihydro-1,3,5,6-tetraaza-as-indacene] | 
11 | 3430 | 604 | 2630 | 92.5 | CN1CCC[C@H]1C(=O)N1CCC(n2nnc3cnc4[nH]ccc4c32)CC1 [Example 284, ((S)-1-Methyl-pyrrolidin-2-yl)-[4-(6H-1,2,3,5,6-pentaaza-as-indacen-1-yl)-piperidin-1-yl]-methanone] | 
12 | 442 | 47.8 | 6.46 | 3.56 | O=C(Cc1nc2cnc3[nH]ccc3c2n1C1CCN(Cc2cccnc2)CC1)N1CCC(F)(F)CC1 [Example 286, 1-(4,4-Difluoro-piperidin-yl)-2-[1-(1-pyridin-3-ylmethyl-piperidin-4-yl)-1,6-dihydro-1,3,5,6-tetraaza-as-indacen-2-yl]-ethanone] | 
13 | 204 | 4.88 | 6.27 | 3.94 | N#Cc1nc2cnc3[nH]ccc3c2n1C1CCN(Cc2cccnc2)CC1 [Example 290, 1-(1-Pyridin-3-ylmethyl-piperidin-4-yl)-1,6-dihydro-1,3,5,6-tetraaza-as-indacene-2-carbonitrile] | 
14 | 11.9 | 1.31 | 14 | 1.21 | N#CCCN1CCC(n2c(C#N)nc3cnc4[nH]ccc4c32)CC1 [Example 293, 1-[1-(2-Cyano-ethyl)-piperidin-4-yl]-1,6-dihydro-1,3,5,6-tetraaza-as-indacene-2-carbonitrile] | 
15 | 28.4 | 2.04 | 9.86 | 1.05 | FC(F)(F)c1nc(CN2CCC(n3cnc4cnc5[nH]ccc5c43)CC2)cs1 [Example 295, 1-[1-(2-Trifluoromethyl-thiazol-4-ylmethyl)-piperidin-4-yl]-1,6-dihydro-1,3,5,6-tetraaza-as-indacene] | 
16 | 16.2 | 4.75 | 19.5 | 3.3 | O=C(CC(F)(F)F)N1CCC[C@@H](n2cnc3cnc4[nH]ccc4c32)C1 [Example 296] | 
17 | 31.5 | 5.28 | 21 | 3.91 | CC(C)(C#N)C(=O)N1CCC[C@@H](n2cnc3cnc4[nH]ccc4c32)C1 [Example 297, 2,2-Dimethyl-3-oxo-3-[(R)-3-(6H-1,3,5,6-tetraaza-as-indacen-1-yl)-piperidin-1-yl]-propionitrile] | 
18 | 1290 | 367 | 231 | 27.8 | c1cc2c(ncc3nc(C4CC4)n(C4CCNCC4)c32)[nH]1 [Example 298, 2-Cyclopropyl-1-piperidin-4-yl-1,6-dihydro-1,3,5,6-tetraaza-as-indacene] | 
19 | 127 | 4.53 | 4.53 | 2.5 | FC(F)c1nc2cnc3[nH]ccc3c2n1C1CCN(Cc2ccccc2)CC1 [Example 299, 1-(1-Benzyl-piperidin-4-yl)-2-difluoromethyl-1,6-dihydro-1,3,5,6-tetraaza-as-indacene] | 
20 | 2160 | 1300 | 1450 | 373 | FC(F)(F)c1nc2cnc3[nH]ccc3c2n1[C@@H]1CCCNC1 [Example 301, 1-(R)-Piperidin-3-yl-2-trifluoromethyl-1,6-dihydro-1,3,5,6-tetraaza-as-indacene] | 
21 | 71.7 | 13.7 | 66.4 | 9.45 | N#CCC(=O)N1CCC[C@@H](n2c(C(F)(F)F)nc3cnc4[nH]ccc4c32)C1 [Example 302, 3-Oxo-3-[(R)-3-(2-trifluoromethyl-6H-1,3,5,6-tetraaza-as-indacen-1-yl)-piperidin-1-yl]-propionitrile] | 
22 | 61.2 | 3.53 | 14.6 | 2.07 | Fc1cncc(CN2CCC(n3cnc4cnc5[nH]ccc5c43)CC2)c1 [Example 303, 1-[1-(5-Fluoro-pyridin-3-ylmethyl)-piperidin-4-yl]-1,6-dihydro-1,3,5,6-tetraaza-as-indacene] | 
23 | 52.4 | 3.55 | 20.4 | 3.32 | N#Cc1cccc(CN2CCC(n3cnc4cnc5[nH]ccc5c43)CC2)n1 [Example 304, 6-[4-(6H-1,3,5,6-Tetraaza-as-indacen-1-yl)-piperidin-1-ylmethyl]-pyridine-2-carbonitrile] | 
24 | 373 | 228 | 202 | 18.2 | FC(F)c1nc2cnc3[nH]ccc3c2n1C1CCNCC1 [Example 307, 2-Difluoromethyl-1-piperidin-4-yl-1,6-dihydro-1,3,5,6-tetraaza-as-indacene] | 
25 | 12.3 | 2.63 | 6.04 | 1.5 | N#CCCN1CCC(n2c(C(F)F)nc3cnc4[nH]ccc4c32)CC1 [Example 308, 3-[4-(2-Difluoromethyl-6H-1,3,5,6-tetraaza-as-indacen-1-yl)-piperidin-1-yl]-propionitrile] | 
26 | 1940 | 295 | 93.4 | 52 | N#Cc1cccc(CN2CCC(n3c(CC(=O)N4CCC(F)(F)CC4)nc4cnc5[nH]ccc5c43)CC2)n1 [Example 309] | 
27 | 197 | 26.3 | 213 | 9.01 | CC(C)OC(=O)N[C@H]1CC[C@H](n2cnc3cnc4[nH]ccc4c32)CC1 [Example 310, [(R)-4-(6H-1,3,5,6-Tetraaza-as-indacen-1-yl)-cyclohexyl]-carbamic acid isopropyl ester] | 
28 | 78.6 | 3.67 | 59.6 | 1.38 | N#Cc1cc(CN2CCC(n3cnc4cnc5[nH]ccc5c43)CC2)ccn1 [Example 313, 4-[4-(6H-1,3,5,6-Tetraaza-as-indacen-1-yl)-piperidin-1-ylmethyl]-pyridine-2-carbonitrile] | 

Row | Compound | Ki (TYK2) [nM] | Ki (JAK2) [nM] | Ki (JAK3) [nM] | Ki (JAK1; read-out: JAK1 Ki) [nM] | Ki (JAK1; JAK1 Ki) [nM]
29 | Cc1nc2cnc3[nH]ccc3c2n1[C@@H]1C[C@H]2CC[C@@H](C1)N2Cc1ccccc1 [Example 271, 1-(8-Benzyl-8-aza-bicyclo[3.2.1]oct-3-yl)-2-methyl-1,6-dihydro-1,3,5,6-tetraaza-as-indacene] | 302 | 12.4 | 60.4 | 17.4 | 
30 | FC(F)(F)c1nc2cnc3[nH]ccc3c2n1[C@@H]1CCCN(Cc2ccccc2)C1 [Example 287] | 2050 | 145 | 822 |  | 282
